The assay concerns the target KLF4 (Kruppel-Like Factor 4) (Homo sapiens, UniProt O43474). Description: SPR. It is filed as binding.

These results are taken from PMC11566621 (Stem Cell Research & Therapy, 2024).

pKd: −log10 of the molar value.

Broadly, the pKd is the negative decadic logarithm of the Kd, by convention in mol/L. Read a low pKd as a large Kd.

Sequence of KLF4 (Kruppel-Like Factor 4) (O43474 whole entry): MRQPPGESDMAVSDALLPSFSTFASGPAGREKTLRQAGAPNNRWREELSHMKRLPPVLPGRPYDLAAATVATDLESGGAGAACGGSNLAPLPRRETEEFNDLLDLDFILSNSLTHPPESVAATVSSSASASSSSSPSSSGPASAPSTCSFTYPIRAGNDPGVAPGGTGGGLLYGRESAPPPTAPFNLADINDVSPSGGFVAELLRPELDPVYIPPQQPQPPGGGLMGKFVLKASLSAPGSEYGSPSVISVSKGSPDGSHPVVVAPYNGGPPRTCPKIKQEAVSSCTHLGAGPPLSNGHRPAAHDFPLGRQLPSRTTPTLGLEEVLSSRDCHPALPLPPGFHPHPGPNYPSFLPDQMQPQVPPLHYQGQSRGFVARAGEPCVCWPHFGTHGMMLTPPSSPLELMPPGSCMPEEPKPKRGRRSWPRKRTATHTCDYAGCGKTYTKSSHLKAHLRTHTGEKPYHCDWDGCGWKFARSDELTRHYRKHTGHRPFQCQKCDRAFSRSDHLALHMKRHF

As for `C[C@@H]1O[C@@H](O[C@H]2C(=O)c3c(O)cc(O)cc3O[C@@H]2c2ccc(O)c(O)c2)[C@H](O)[C@H](O)[C@H]1O` [Astilbin], the pKd was 4.31.
